Test results as given in patent publication US20230165835A1, “METHODS OF TREATING ACUTE LUNG INJURY USING EBSELEN” (SOUND PHARMACEUTICALS INC., priority 2020, published 2023).
“Also recorded” adds a separate entry of the source.

Assays:
[1] = Meniere's Disease clinical study: auditory function; assay type: in vivo, human; conditions: exceeds reported improvements with corticosteroid treatment
Source text: (§1) We have studied the efficacy of ebselen in a number of indications including the treatment of Meniere's Disease, and in the treatment of ototoxicity in cystic fibrosis (CF) patients. Ebselen has an anti-inflammatory mechanism of action that is distinct from that of a classic corticosteroid immunosuppressive agent which can be beneficial in the treatment of respiratory viral infections. […] In addition, our Phase 2b study in cystic fibrosis (CF) patients with Pseudomonas is continuing without any safety issues. […] Our results and analysis in these other clinical studies supports the use of ebselen in the subject methods of treating or preventing conditions associated with respiratory viral infections described herein.
(§2) The anti-inflammatory mechanism of action of ebselen is unique and distinct over that of a classic corticosteroid immunosuppressive agent. […] In addition, our Phase 2b study in CF patients with Pseudomonas is continuing without any safety issues.

[2] = Study 6.4: ebselen in moderate COVID-19; assay type: in vivo, human; conditions: 400 or 800 mg BID for 7 days
[3] = Cystic fibrosis trial (IV tobramycin + SPI-1005 0/200/400/600 BID, 21 days): FEV1; assay type: in vivo, human
Description: (§3) Thirty of 80 participants were enrolled starting in January 2019. They were Cystic fibrosis patients ages 18-70 that had acute pulmonary exacerbation or acute respiratory infections that required treatment with IV tobramycin 10 mg/kg/d for 10-21 days. They were randomized into four groups (1:1:1:1) (0, 200, 400, or 600 BID) and treated for 21 days. There were four follow-up visits for safety (adverse events, spirometry, labs), and two follow-up visits for efficacy (audiometric and vestibular). The primary endpoint was a reduction in cochleotoxic change, and the secondary endpoints was a reduction in tinnitus or vertigo severity.

18 common microbes = experiment: MIC assays against 18 common microbes (interference); assay type: cell-based; conditions: to support testing in CF patients
Source text: as §1, §2

[4] = Cystic fibrosis trial Part 2 Intervention: tobramycin-induced ototoxicity; assay type: in vivo, human
Description: as §3

nCoV2 = experiment: Study 6.2: ebselen in nCoV2 positive subjects with no to mild COVID-19, viral load; conditions: 400 to 600 mg BID for 7-10 days, no to mild disease
Description: Eligible participants are diagnosed as nCoV2 positive and enrolled for treatment within 1-5 days of appearance of symptoms. The patient is not treated with another anti-viral therapeutic agent prior to beginning of treatment. […] Randomization is stratified by age (<60 years or ≥60 years).
Ebselen is dosed as 400 to 600 mg BID for a period of 7-10 days. […] Participants receive study intervention for up to 10 days and are followed for 28 days after first dose.
Respiratory samples are taken before treatment begins and daily during treatment to assess nCoV2 viral load daily.
The primary efficacy endpoint is the time to significant reduction in pre-treatment viral load (see Zou et al.; Pan et al.). […] Other efficacy assessments are also performed and compared to baseline levels.
Follow-up assessments can be performed at 2, 4, and 8 weeks after the start of treatment. […] Extended dosing involves sub-chronic dosing of 4-12 weeks (e.g., 4, 8 or 12 weeks) with assessment of viral load until virus eliminated.

[5] = Solubility in aqueous solutions; conditions: 25° Celsius
[6] = Part 2 Intervention (1:1:1:1) pooled

O=c1c2ccccc2[se]n1-c1ccccc1 [ebselen, 2-phenyl-1,2-benzisoselenazol-3(2H)-one]
auditory function (hearing loss, word recognition and tinnitus) [1]: improvement in auditory function; also recorded: improve auditory function
respiratory status and progression to severe disease [2]: effective to improve in respiratory status and prevent progression to severe disease
change in lung functioning (FEV1) ([3]; 2 and 4 weeks, cystic fibrosis patients on IV tobramycin, versus Part 1 observation study): improvement in lung functioning (FEV1) at both 2 and 4 weeks; also recorded: improved relative FEV1% predicted at 2 and 4 weeks
FEV1 score Mean (SD), 2 Week ([3]; pooled 0/200/400/600 BID groups, baseline 46.87 (13.68), n 17): 48.53 (14.57)
FEV1 score Mean (SD), 4 Week ([3]; pooled 0/200/400/600 BID groups, baseline 46.87 (13.68), n 19): 52.68 (22.99)
interference in MIC assays (18 common microbes): lack of interference
ototoxic change versus Part 1 Observational study ([4]; 4 weeks after IV tobramycin treatment): lower levels of ototoxic change
% Responders (Bilateral), Conv + SRO [4, 6]: 29%
% Responders (Bilateral), Conventional [4, 6]: 5%
% Responders (Bilateral), DPOAE [4, 6]: 40%
% Responders (Bilateral), SRO [4, 6]: 21%
% Responders (Bilateral), WINT [4, 6]: 0%
% Responders (Unilateral), Conv + SRO [4, 6]: 29%
% Responders (Unilateral), Conventional [4, 6]: 5%
% Responders (Unilateral), DPOAE [4, 6]: 40%
% Responders (Unilateral), SRO [4, 6]: 37%
% Responders (Unilateral), WINT [4, 6]: 26%
% Responders, Conv + SRO [4, 6]: 57%
% Responders, DPOAE [4, 6]: 80%
% Responders, SRO [4, 6]: 58%
% Responders, TFI [4, 6]: 14%
% Responders, TL [4, 6]: 0%
% Responders, VSS [4, 6]: 5%
% Responders, WINT [4, 6]: 26%
% Responders, Conventional ([4]; Part 2 Intervention (1:1:1:1; 0, 200, 400, 600 BID pooled) with IV tobramycin, 4 weeks post-treatment): 10%
viral load (nCoV2): effective to reduce viral load
solubility in aqueous solutions [5]: slightly soluble
